Experimental data published in patent US20030194377A1, “Therapeutic uses of BPI protein products in cystic fibrosis patients” (priority 1996, published 2003).

B1: BPI: bactericidal/permeability-increasing protein isolated from granules of polymorphonuclear leukocytes (protein, UniProt P17213 32-487, looked up)
Bactericidal …: VNPGVVVRISQKGLDYASQQGTAALQKELKRIKIPDYSDSFKIKHLGKGHYSFYSMDIREFQLPSSQISMVPNVGLKFSISNANIKISGKWKAQKRFLKMSGNFDLSIEGMSISADLKLGSNPTSGKPTITCSSCSSHINSVHVHISKSKVGWLIQLFHKKIESALRNKMNSQVCEKVTNSVSSELQPYFQTLPVMTKIDSVAGINYGLVAPPATTAETLDVQMKGEFYSENHHNPPPFAPPVMEFPAAHDRMVYLGLSDYFFNTAGLVYQEAGVLKMTLRDDMIPKESKFRLTTKFFGTFLPEVAKKFPNMKIQIHVSASTPPHLSVQPTGLTFYPAVDVQAFAVLPNSSLASLFLIGMHTTGSMEVSAESNRLVGELKLDRLLLELKHSNIGPFPVELLQDIMNYIVPILVLPRVNEKLQKGFPLPTPARVQLYNVVLQPHQNFLLFGADVVYK
B2: rBPI: recombinant BPI holoprotein (protein, UniProt P17213 32-487, looked up)
Bactericidal …: B1 Bactericidal …

Experiments:
[1] = tested on: Pseudomonas aeruginosa strain isolated from a sputum sample from a CF patient; assay: Dade MicroScan gram-negative panels supplemented with rBPI21; type: cell-based; settings: for change of antibiotic MIC: in combination with rBPI21 formulated with 0.2% poloxamer 403, versus poloxamer 188 formulation; for susceptibility of the strain to combination of rBPI21 and antibiotic: supplemented with 16 μg/mL rBPI21 formulated with 0.2% poloxamer 188; for change of susceptibility to antibiotic: in combination with rBPI21 formulated with 0.2% poloxamer 403
autoantibodies to BPI = settings: adult CF patients, Zhao et al. 1996; cited from earlier work
anti-BPI antibodies = assay: enzyme immunoassay of BPI antibody titers in plasma samples from cystic fibrosis patients; type: binding, human; settings: 11 CF patient plasma samples, dilutions 1/100 to 1/12,800; protein coated as antigen
Experimental: Plasma samples from 11 cystic fibrosis (CF) patients were tested for the presence of anti-BPI antibodies as follows. BPI holoprotein (rBPI) or an N-terminal BPI protein product (rBPI21) were used as antigen sources in an enzyme immunoassay. The wells of Immulon 2 microtiter plates (Dynatech Laboratories Inc., Chantilly, Va.) were coated overnight at 2-8° C. with 50 uL of rBPI21 (0.5 μg/mL) or rBPI (1 μg/mL) diluted in phosphate buffered saline, pH 7.2 (PBS). Unbound BPI was removed and 200 μL of PBS containing 0.1% human serum albumin and 0.1% goat serum was added to all wells. After blocking the plates for 1 hour at room temperature, the wells were washed 3 times with 300 μL of wash buffer (PBS/0.5% Tween 20). Plasma samples were prepared as serial two-fold dilutions from 1/100 to 1/12,800. Plasma samples were diluted in triplicate with PBS containing 1% bovine serum albumin, 1% goat serum and 0.05% Tween 20 (PBS-BSA-GS/Tween). […] The absorbance at 405 nm (A405) was determined for all wells using a Vmax Plate Reader (Molecular Devices Corp., Menlo Park, Calif.).
The mean A405 for all samples were corrected for background by subtracting the mean A405 of wells receiving sample dilution buffer (no plasma) in the primary incubation step. […] An absorbance greater than 0.05 units was considered to be above background.

Molecule | susceptibility of the strain to combination of rBPI21 and antibiotic [1] | change of susceptibility to antibiotic [1] | also measured
O=C(O)c1cn(C2CC2)c2cc(N3CCNCC3)c(F)cc2c1=O [ciprofloxacin] | susceptible |  | change of antibiotic MIC [1]: further decreased the MICs
CCN[C@@H]1C[C@H](N)[C@@H](O[C@H]2OC(CN)=CC[C@H]2N)[C@H](O)[C@H]1O[C@H]1OC[C@](C)(O)[C@H](NC)[C@H]1O [netilmicin] |  | increased susceptibity | 
CC1(C)S[C@@H]2[C@H](NC(=O)[C@H](NC(=O)N3CCNC3=O)c3ccccc3)C(=O)N2[C@H]1C(=O)O [azlocillin] |  | increased susceptibity | 
C[C@H]1[C@H](NC(=O)/C(=N\OC(C)(C)C(=O)O)c2csc(N)n2)C(=O)N1S(=O)(=O)O [aztreonam] | susceptible |  | change of antibiotic MIC [1]: further decreased the MICs
Augmentin |  | increased susceptibity | 
O=C(N[C@H](CO)[C@H](O)c1ccc([N+](=O)[O-])cc1)C(Cl)Cl [chloramphenicol] |  | increased susceptibity | 
sulfamethoxazole/trimethoprim | susceptible |  | 
CC1(C)S[C@@H]2[C@H](NC(=O)C(C(=O)O)c3ccccc3)C(=O)N2[C@H]1C(=O)O (stereo partly shown) [carbenicilin] | susceptible |  | 
NC[C@H]1O[C@H](O[C@H]2[C@H](O)[C@@H](O[C@H]3O[C@H](CO)[C@@H](O)[C@H](N)[C@H]3O)[C@H](N)C[C@@H]2N)[C@H](N)C[C@@H]1O [tobramycin] | susceptible |  | 
B1 |  |  | sera with autoantibodies to BPI (autoantibodies to BPI): 60/66
B2 |  |  | plasma samples with detectable immune response (A405>0.05) (anti-BPI antibodies): 7/11
